Reference: ChEMBL document CHEMBL1201862, “PubChem BioAssay data set” (2004)
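Assay format: 96-well plates, 48-hour exposure. GI50 = concentration required for 50% inhibition of growth.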 The source made the active and inactive calls. Cut-off read from the data, not from the text of the source: active = GI50 up to about 1.1 µM and inactive = higher.

How the values were obtained:
Assay in all cases: DTP human tumour cell line panel, 48 h
HCT-15 = test system: HCT-15
A498 = test system: A498
CCRF-CEM = test system: CCRF-CEM
SK-MEL-28 = test system: SK-MEL-28
OVCAR-8 = test system: OVCAR-8
SN12C = test system: SN12C
COLO 205 = test system: COLO 205
DMS-273 = test system: DMS-273
TK-10 = test system: TK-10
NCI-H460 = test system: NCI-H460
IGROV-1 = test system: IGROV-1
LOX IMVI = test system: LOX IMVI
HOP-62 = test system: HOP-62
M14 = test system: M14
HOP-92 = test system: HOP-92
RXF 393 = test system: RXF 393
SNB-78 = test system: SNB-78
BT-549 = test system: BT-549
T47D = test system: T47D
Hs-578T = test system: Hs-578T

**Q.** `CN(CN1C(=O)C2Cc3ccccc3CN2C1=O)c1ccccn1` (stereo not drawn) was tested. Which GI50 (HCT-15) did it give?
**A.** > 100 µM

**Q.** And the GI50 (A498)?
**A.** > 100 µM (inactive)

**Q.** What about the GI50 (CCRF-CEM) of the same molecule?
**A.** > 100 µM (inactive)

**Q.** What about the GI50 (SK-MEL-28) of the same molecule?
**A.** > 100 µM (inactive)

**Q.** And the GI50 (OVCAR-8)?
**A.** > 100 µM (inactive)

**Q.** And the GI50 (SN12C)?
**A.** > 100 µM (inactive)

**Q.** And the GI50 (COLO 205)?
**A.** > 100 µM (inactive)

**Q.** And the GI50 (DMS-273)?
**A.** > 100 µM (inactive)

**Q.** What about the GI50 (TK-10) of the same molecule?
**A.** > 100 µM (inactive)

**Q.** And the GI50 (NCI-H460)?
**A.** > 100 µM (inactive)

**Q.** What about the GI50 (IGROV-1) of the same molecule?
**A.** > 100 µM (inactive)

**Q.** And the GI50 (LOX IMVI)?
**A.** > 100 µM (inactive)

**Q.** And the GI50 (HOP-62)?
**A.** > 100 µM (inactive)

**Q.** What about the GI50 (M14) of the same molecule?
**A.** > 100 µM (inactive)

**Q.** For `Nc1ccc2ncc(NCc3ccc(F)cc3)nc2c1`, which GI50 (HCT-15) is on record?
**A.** > 100 µM

**Q.** And the GI50 (CCRF-CEM)?
**A.** > 100 µM (inactive)

**Q.** What about the GI50 (SK-MEL-28) of the same molecule?
**A.** > 100 µM (inactive)

**Q.** What about the GI50 (OVCAR-8) of the same molecule?
**A.** 90.4 µM (inactive)

**Q.** What about the GI50 (SN12C) of the same molecule?
**A.** 87.5 µM (inactive)

**Q.** And the GI50 (COLO 205)?
**A.** > 100 µM (inactive)

**Q.** What about the GI50 (HOP-92) of the same molecule?
**A.** 53.1 µM (inactive)

**Q.** And the GI50 (DMS-273)?
**A.** > 100 µM (inactive)

**Q.** And the GI50 (TK-10)?
**A.** 97.3 µM (inactive)

**Q.** And the GI50 (RXF 393)?
**A.** 34.4 µM (inactive)

**Q.** What about the GI50 (NCI-H460) of the same molecule?
**A.** 74.6 µM (inactive)

**Q.** What about the GI50 (LOX IMVI) of the same molecule?
**A.** 75 µM (inactive)

**Q.** And the GI50 (HOP-62)?
**A.** 40.6 µM (inactive)

**Q.** What about the GI50 (M14) of the same molecule?
**A.** > 100 µM (inactive)

**Q.** And the GI50 (SNB-78)?
**A.** > 100 µM (inactive)

**Q.** How did the GI50 (SK-MEL-28) turn out when `N=C(c1ccccc1)N(c1ccccc1)c1ccccc1` was run?
**A.** > 100 µM (inactive)

**Q.** What about the GI50 (OVCAR-8) of the same molecule?
**A.** > 100 µM (inactive)

**Q.** And the GI50 (SN12C)?
**A.** 22.5 µM (inactive)

**Q.** What about the GI50 (COLO 205) of the same molecule?
**A.** 19.2 µM (inactive)

**Q.** What about the GI50 (HOP-92) of the same molecule?
**A.** < 0.01 µM (active)

**Q.** What about the GI50 (DMS-273) of the same molecule?
**A.** 42.5 µM (inactive)

**Q.** What about the GI50 (TK-10) of the same molecule?
**A.** > 100 µM (inactive)

**Q.** What about the GI50 (RXF 393) of the same molecule?
**A.** 30.5 µM (inactive)

**Q.** And the GI50 (NCI-H460)?
**A.** 87.5 µM (inactive)

**Q.** And the GI50 (LOX IMVI)?
**A.** 18.2 µM (inactive)

**Q.** And the GI50 (HOP-62)?
**A.** > 100 µM (inactive)

**Q.** And the GI50 (M14)?
**A.** > 100 µM (inactive)

**Q.** What about the GI50 (SNB-78) of the same molecule?
**A.** 55 µM (inactive)

**Q.** How did the GI50 (HCT-15) turn out when `CCOC(=O)/C(C(C)=O)=C1/N[C@H](C(=O)OCC)CS1` was run?
**A.** > 100 µM

**Q.** And the GI50 (CCRF-CEM)?
**A.** > 100 µM (inactive)

**Q.** And the GI50 (SK-MEL-28)?
**A.** > 100 µM (inactive)

**Q.** What about the GI50 (OVCAR-8) of the same molecule?
**A.** > 100 µM (inactive)

**Q.** And the GI50 (SN12C)?
**A.** > 100 µM (inactive)

**Q.** What about the GI50 (COLO 205) of the same molecule?
**A.** > 100 µM (inactive)

**Q.** What about the GI50 (RXF 393) of the same molecule?
**A.** > 100 µM (inactive)

**Q.** And the GI50 (NCI-H460)?
**A.** > 100 µM (inactive)

**Q.** And the GI50 (IGROV-1)?
**A.** > 100 µM (inactive)

**Q.** And the GI50 (LOX IMVI)?
**A.** > 100 µM (inactive)

**Q.** And the GI50 (HOP-62)?
**A.** > 100 µM (inactive)

**Q.** What about the GI50 (M14) of the same molecule?
**A.** > 100 µM (inactive)

**Q.** And the GI50 (SNB-78)?
**A.** > 100 µM (inactive)

**Q.** For `COc1ccccc1NC(=O)CC(=O)N1N=C(c2ccccc2)C(/N=N/c2ccc(Cl)cc2)C1=O` (stereo not drawn), which GI50 (HCT-15) is on record?
**A.** 58.6 µM

**Q.** And the GI50 (A498)?
**A.** 15.2 µM (inactive)

**Q.** What about the GI50 (SK-MEL-28) of the same molecule?
**A.** 37 µM (inactive)

**Q.** What about the GI50 (OVCAR-8) of the same molecule?
**A.** 41.8 µM (inactive)

**Q.** And the GI50 (SN12C)?
**A.** 68.1 µM (inactive)

**Q.** And the GI50 (COLO 205)?
**A.** 71.4 µM (inactive)

**Q.** What about the GI50 (DMS-273) of the same molecule?
**A.** 34.8 µM (inactive)

**Q.** And the GI50 (TK-10)?
**A.** 27.7 µM (inactive)

**Q.** And the GI50 (NCI-H460)?
**A.** 34.8 µM (inactive)

**Q.** What about the GI50 (IGROV-1) of the same molecule?
**A.** 29.9 µM (inactive)

**Q.** What about the GI50 (LOX IMVI) of the same molecule?
**A.** 22.9 µM (inactive)

**Q.** What about the GI50 (HOP-62) of the same molecule?
**A.** 23.4 µM (inactive)

**Q.** And the GI50 (M14)?
**A.** 59.8 µM (inactive)

**Q.** What about the GI50 (SNB-78) of the same molecule?
**A.** > 100 µM (inactive)

**Q.** `COc1cc2c(cn1)[nH]c1ccccc12` was tested. Which GI50 (HCT-15) did it give?
**A.** > 100 µM

**Q.** What about the GI50 (CCRF-CEM) of the same molecule?
**A.** > 100 µM (inactive)

**Q.** And the GI50 (SK-MEL-28)?
**A.** 67.5 µM (inactive)

**Q.** What about the GI50 (OVCAR-8) of the same molecule?
**A.** > 100 µM (inactive)

**Q.** And the GI50 (SN12C)?
**A.** > 100 µM (inactive)

**Q.** What about the GI50 (COLO 205) of the same molecule?
**A.** > 100 µM (inactive)

**Q.** What about the GI50 (HOP-92) of the same molecule?
**A.** > 100 µM (inactive)

**Q.** And the GI50 (DMS-273)?
**A.** > 100 µM (inactive)

**Q.** And the GI50 (TK-10)?
**A.** > 100 µM (inactive)

**Q.** What about the GI50 (NCI-H460) of the same molecule?
**A.** > 100 µM (inactive)

**Q.** What about the GI50 (IGROV-1) of the same molecule?
**A.** > 100 µM (inactive)

**Q.** And the GI50 (LOX IMVI)?
**A.** > 100 µM (inactive)

**Q.** And the GI50 (HOP-62)?
**A.** > 100 µM (inactive)

**Q.** What about the GI50 (M14) of the same molecule?
**A.** > 100 µM (inactive)

**Q.** And the GI50 (SNB-78)?
**A.** 59.3 µM (inactive)

**Q.** How did the GI50 (A498) turn out when `COc1ccc(/C=C(/C(=O)O)c2cc(OC)c(OC)c(OC)c2)cc1` was run?
**A.** 52.4 µM (inactive)

**Q.** And the GI50 (CCRF-CEM)?
**A.** 43.1 µM (inactive)

**Q.** And the GI50 (SK-MEL-28)?
**A.** 61.9 µM (inactive)

**Q.** And the GI50 (OVCAR-8)?
**A.** 63.5 µM (inactive)

**Q.** And the GI50 (SN12C)?
**A.** 46.9 µM (inactive)

**Q.** And the GI50 (COLO 205)?
**A.** 33.3 µM (inactive)

**Q.** What about the GI50 (HOP-92) of the same molecule?
**A.** > 100 µM (inactive)

**Q.** What about the GI50 (DMS-273) of the same molecule?
**A.** 31.6 µM (inactive)

**Q.** What about the GI50 (NCI-H460) of the same molecule?
**A.** 48.1 µM (inactive)

**Q.** What about the GI50 (IGROV-1) of the same molecule?
**A.** > 100 µM (inactive)

**Q.** And the GI50 (HOP-62)?
**A.** 35 µM (inactive)

**Q.** What about the GI50 (M14) of the same molecule?
**A.** 24.2 µM (inactive)

**Q.** What about the GI50 (SNB-78) of the same molecule?
**A.** 35.8 µM (inactive)

**Q.** What does the source list for `CC[C@@]1(O)C(=O)OCc2c1cc1n(c2=O)Cc2cc3cc(O)ccc3nc2-1` [HYDROXYCAMPTOTHECIN]?
**A.** GI50 (HCT-15): 0.295 µM; GI50 (CCRF-CEM): < 0.0075 µM (active); GI50 (OVCAR-8): 0.0142 µM (active); GI50 (BT-549): 0.0543 µM (active); GI50 (SN12C): 0.0128 µM (active); GI50 (COLO 205): 0.125 µM (active); GI50 (HOP-92): 0.0277 µM (active); GI50 (TK-10): 2.69 µM (inactive); GI50 (RXF 393): 0.0236 µM (active); GI50 (IGROV-1): 0.476 µM (active); GI50 (T47D): 0.01 µM (active); GI50 (Hs-578T): 1.04 µM (active); GI50 (LOX IMVI): 0.0337 µM (active); GI50 (HOP-62): < 0.0109 µM (active); GI50 (M14): 0.0336 µM (active); GI50 (SNB-78): 0.248 µM (active)
